From DBAASP
≈ marks a conversion by molar mass, not a printed value.

What was measured:
Assay in all cases: ≥ marks a high value that may be exact or a test limit, other limits are often not marked, values filed in µg/mL are converted to µM
[1] = test system: Escherichia coli ATCC 25922
[2] = test system: Escherichia coli CVCC 1515
Escherichia coli K88 = test system: Escherichia coli K88
Escherichia coli UB1005 = test system: Escherichia coli UB1005
[3] = test system: Pseudomonas aeruginosa ATCC 27853
[4] = test system: Salmonella enterica subsp. enterica serovar Typhimurium ATCC 14028
[5] = test system: Staphylococcus aureus ATCC 29213
[6] = test system: Staphylococcus epidermidis ATCC 12228
[7] = test system: Acinetobacter baumannii MTCC 9829
[8] = test system: Alcaligenes faecalis MTCC 1937
[9] = test system: Alkalihalobacillus alcalophilus MTCC 860
[10] = test system: Bordetella bronchiseptica MTCC 6837
[11] = test system: Citrobacter freundii MTCC 1658
[12] = test system: Citrobacter koseri MTCC 1657
[13] = test system: Corynebacterium glutamicum MTCC 2679
[14] = test system: Enterococcus faecalis MTCC 439
[15] = test system: Escherichia coli K12 MG1655
[16] = test system: Haemophilus influenzae MTCC 621
[17] = test system: Klebsiella aerogenes MTCC 111
[18] = test system: Klebsiella oxytoca MTCC 2275
[19] = test system: Klebsiella pneumoniae MTCC 7407
[20] = test system: Pluralibacter gergoviae MTCC 3826
[21] = test system: Proteus mirabilis MTCC 3158
[22] = test system: Proteus vulgaris MTCC 1771
[23] = test system: Pseudomonas aeruginosa MTCC 3542
[24] = test system: Salmonella enterica MTCC 9844
[25] = test system: Shigella boydii MTCC 11947
[26] = test system: Shigella flexneri MTCC 1457
[27] = test system: Staphylococcus aureus MTCC 3160
[28] = test system: Staphylococcus haemolyticus MTCC 3383
[29] = test system: Stenotrophomonas maltophilia MTCC 1890
[30] = test system: Vibrio cholerae MTCC 3904
[31] = test system: Candida albicans ATCC 90029
Candida albicans = test system: Candida albicans
Escherichia coli = test system: Escherichia coli
Pseudomonas aeruginosa = test system: Pseudomonas aeruginosa
Staphylococcus aureus = test system: Staphylococcus aureus
[32] = test system: Enterococcus faecalis ATCC 29212
Listeria monocytogenes = test system: Listeria monocytogenes
[33] = test system: Pseudomonas aeruginosa K799
[34] = test system: Salmonella enterica subsp. enterica serovar Typhimurium ATCC 14028s
[35] = test system: Staphylococcus aureus ATCC 25923
[36] = test system: Staphylococcus epidermidis

| Compound | MIC [1] | MIC (Escherichia coli UB1005) | MIC [5] | MIC [4] | MIC [7] | MIC [8] | MIC [9] | MIC [10] | MIC [11] | MIC [12] | MIC [13] | MIC [14] | MIC [15] | MIC [16] | MIC [17] | MIC [18] | MIC [19] | MIC [20] | MIC [21] | MIC [22] | other results |
| --- | --- | --- | --- | --- | --- | --- | --- | --- | --- | --- | --- | --- | --- | --- | --- | --- | --- | --- | --- | --- | --- |
| CC(C)C[C@H](NC(=O)[C@H](Cc1c[nH]c2ccccc12)NC(=O)[C@H](C)NC(=O)[C@H](CCCCN)NC(=O)[C@H](C)NC(=O)[C@H](C)N)C(=O)N[C@@H](CCCCN)C(=O)N[C@@H](CC(C)C)C(=O)N[C@@H](Cc1c[nH]c2ccccc12)C(=O)N[C@@H](C)C(=O)N[C@@H](CCCCN)C(=O)N[C@@H](C)C(=O)N[C@@H](C)C(N)=O [AAKAWLKLWAKAA] | 2 µM (≈ 2.85 µg/mL) | 16 µM (≈ 22.8 µg/mL) | 64 µM (≈ 91.3 µg/mL) | 32 µM (≈ 45.7 µg/mL) | – | – | – | – | – | – | – | – | – | – | – | – | – | – | – | – | MIC [2]: 16 µM (≈ 22.8 µg/mL); MIC (Escherichia coli K88): 8 µM (≈ 11.4 µg/mL); MIC [3]: 64 µM (≈ 91.3 µg/mL); MIC [6]: 64 µM (≈ 91.3 µg/mL) |
| CC(C)C[C@H](NC(=O)[C@H](Cc1cnc[nH]1)NC(=O)[C@H](CC(N)=O)NC(=O)[C@H](Cc1c[nH]c2ccccc12)NC(=O)[C@H](CC(=O)O)NC(=O)[C@@H](N)CCC(=O)O)C(=O)NCC(=O)N[C@@H](C)C(=O)N[C@@H](C)C(=O)N[C@H](C(=O)N[C@@H](Cc1cnc[nH]1)C(=O)N[C@H](C(=O)N[C@@H](CC(C)C)C(=O)N[C@@H](CCCCN)C(=O)N[C@@H](Cc1cnc[nH]1)C(=O)N[C@H](C(=O)N[C@@H](Cc1ccc(O)cc1)C(=O)N[C@@H](CCCCN)C(=O)O)C(C)C)[C@@H](C)O)C(C)C [EDWNHLGAAVHTLKHVYK] | – | – | – | > 60.4 µM | ≥ 60.4 µM | ≥ 60.4 µM | ≥ 60.4 µM | ≥ 60.4 µM | ≥ 60.4 µM | ≥ 60.4 µM | ≥ 60.4 µM | ≥ 60.4 µM | ≥ 60.4 µM | ≥ 60.4 µM | ≥ 60.4 µM | ≥ 60.4 µM | ≥ 60.4 µM | ≥ 60.4 µM | ≥ 60.4 µM | ≥ 60.4 µM | MIC [23]: ≥ 60.4 µM; MIC [24]: ≥ 60.4 µM; MIC [25]: ≥ 60.4 µM; MIC [26]: ≥ 60.4 µM; MIC [27]: ≥ 60.4 µM; MIC [28]: ≥ 60.4 µM; MIC [29]: ≥ 60.4 µM; MIC [30]: ≥ 60.4 µM |
| CC(C)C[C@H](NC(=O)[C@H](Cc1cnc[nH]1)NC(=O)[C@H](CCCN=C(N)N)NC(=O)[C@H](C)NC(=O)[C@H](CCCN=C(N)N)NC(=O)[C@H](Cc1cnc[nH]1)NC(=O)[C@H](C)NC(=O)[C@@H](NC(=O)[C@H](Cc1cnc[nH]1)NC(=O)[C@H](CCCCN)NC(=O)[C@H](CC(C)C)NC(=O)[C@H](CO)NC(=O)[C@H](C)NC(=O)[C@H](CO)NC(=O)[C@H](CC(C)C)NC(=O)[C@@H](N)CCCCN)C(C)C)C(=O)N[C@@H](CO)C(=O)O [KLSASLKHVAHRARHLS] | – | – | – | > 67 µM | ≥ 67 µM | ≥ 67 µM | ≥ 67 µM | ≥ 67 µM | ≥ 67 µM | ≥ 67 µM | ≥ 67 µM | ≥ 67 µM | ≥ 67 µM | ≥ 67 µM | ≥ 67 µM | ≥ 67 µM | ≥ 67 µM | ≥ 67 µM | ≥ 67 µM | ≥ 67 µM | MIC [23]: ≥ 67 µM; MIC [24]: ≥ 67 µM; MIC [25]: ≥ 67 µM; MIC [26]: ≥ 67 µM; MIC [27]: ≥ 67 µM; MIC [28]: ≥ 67 µM; MIC [29]: ≥ 67 µM; MIC [30]: ≥ 67 µM |

Second part, led by results:

| MIC [1] | MIC (Escherichia coli UB1005) | MIC [5] | Compound | MIC [4] | MIC [7] | MIC [8] | MIC [9] | MIC [10] | MIC [11] | MIC [12] | MIC [13] | MIC [14] | MIC [15] | MIC [16] | MIC [17] | MIC [18] | MIC [19] | MIC [20] | MIC [21] | MIC [22] | other results |
| --- | --- | --- | --- | --- | --- | --- | --- | --- | --- | --- | --- | --- | --- | --- | --- | --- | --- | --- | --- | --- | --- |
| 2.18 µM (≈ 3.12 µg/mL) | – | 4.36 µM (≈ 6.25 µg/mL) | CC(C)C[C@H](NC(=O)[C@H](CCCN=C(N)N)NC(=O)[C@H](Cc1cnc[nH]1)NC(=O)[C@H](CCCN=C(N)N)NC(=O)[C@H](CC(C)C)NC(=O)[C@H](CC(C)C)NC(=O)[C@@H](N)CCCCN)C(=O)N[C@@H](CC(C)C)C(=O)N[C@H](C(=O)N[C@H](C(=O)N[C@@H](CC(C)C)C(=O)N[C@@H](C)C(=O)O)[C@@H](C)O)C(C)C [KLLRHRLLVTLA] | – | – | – | – | – | – | – | – | – | – | – | – | – | – | – | – | – | MIC [31]: ≥ 69.8 µM; MIC (Candida albicans): > 69.8 µM; MIC (Escherichia coli): 4.36 µM (≈ 6.25 µg/mL); MIC (Pseudomonas aeruginosa): 8.72 µM (≈ 12.5 µg/mL); MIC (Staphylococcus aureus): 4.36 µM (≈ 6.25 µg/mL) |
| – | 2.22 µM (≈ 4 µg/mL) | – | CC[C@H](C)[C@H](NC(=O)[C@H](CCCN=C(N)N)NC(=O)[C@H](CS)NC(=O)[C@H](CC(C)C)NC(=O)[C@H](CCCN=C(N)N)NC(=O)[C@@H](N)CCCN=C(N)N)C(=O)N[C@H](C(=O)N[C@H](C(=O)N[C@H](C(=O)N[C@@H](CCCN=C(N)N)C(=O)N[C@H](C(=O)N[C@@H](CS)C(=O)N[C@@H](CCCN=C(N)N)C(=O)N[C@@H](CCCN=C(N)N)C(=O)O)C(C)C)[C@@H](C)CC)C(C)C)C(C)C [RRLCRIVVIRVCRR] | – | – | – | – | – | – | – | – | – | – | – | – | – | – | – | – | – | MIC [32]: 2.22 µM (≈ 4 µg/mL); MIC (Listeria monocytogenes): 0.278 µM (≈ 0.5 µg/mL); MIC [33]: 8.9 µM (≈ 16 µg/mL); MIC [34]: 17.8 µM (≈ 32 µg/mL); MIC [35]: > 35.6 µM; MIC [36]: 2.22 µM (≈ 4 µg/mL) |
| 3.07 µM (≈ 6.25 µg/mL) | – | 6.14 µM (≈ 12.5 µg/mL) | CC(C)C[C@H](NC(=O)[C@H](Cc1cnc[nH]1)NC(=O)[C@H](CO)NC(=O)[C@H](C)NC(=O)[C@H](CC(C)C)NC(=O)[C@@H](NC(=O)[C@@H](NC(=O)[C@H](CC(C)C)NC(=O)[C@H](CC(C)C)NC(=O)[C@H](CO)NC(=O)[C@H](Cc1cnc[nH]1)NC(=O)[C@H](CO)NC(=O)[C@H](CC(C)C)NC(=O)[C@H](CC(C)C)NC(=O)[C@H](CCCCN)NC(=O)[C@H](Cc1ccccc1)NC(=O)[C@H](CCCN=C(N)N)NC(=O)[C@@H](N)C(C)C)C(C)C)[C@@H](C)O)C(=O)O [VRFKLLSHSLLVTLASHL] | – | – | – | – | – | – | – | – | – | – | – | – | – | – | – | – | – | MIC [31]: 12.3 µM (≈ 25 µg/mL); MIC (Candida albicans): 12.3 µM (≈ 25 µg/mL); MIC (Escherichia coli): 6.14 µM (≈ 12.5 µg/mL); MIC (Pseudomonas aeruginosa): 3.07 µM (≈ 6.25 µg/mL); MIC (Staphylococcus aureus): 3.07 µM (≈ 6.25 µg/mL) |
